The target of the assay is T1, CKL4 (Arabidopsis thaliana, UniProt Q8LPI7).
T1 sequence (Q8LPI7 1-414): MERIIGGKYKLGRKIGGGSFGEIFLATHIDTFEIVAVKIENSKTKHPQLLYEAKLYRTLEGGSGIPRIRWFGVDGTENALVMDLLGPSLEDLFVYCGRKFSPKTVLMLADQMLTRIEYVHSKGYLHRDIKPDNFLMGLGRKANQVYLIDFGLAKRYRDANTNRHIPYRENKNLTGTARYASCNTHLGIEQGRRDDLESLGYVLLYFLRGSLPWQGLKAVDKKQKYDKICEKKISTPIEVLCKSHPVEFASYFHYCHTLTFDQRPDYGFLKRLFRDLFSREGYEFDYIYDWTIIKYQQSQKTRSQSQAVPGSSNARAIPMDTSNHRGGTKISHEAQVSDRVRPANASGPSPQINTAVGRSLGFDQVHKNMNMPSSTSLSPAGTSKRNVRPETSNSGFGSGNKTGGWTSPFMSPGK
The assay can be described thus: in vitro kinase assay with isotope-labeled ATP. In kind it is biochemical.

Molecules are shown by their SMILES.

As for `O=C1NCCc2[nH]c(-c3ccncc3)cc21` [PHA767491], the IC50 was around 5 µM.

Broadly, the IC50 is the concentration needed to halve the response being measured. Higher therefore signals a need for much substance.
